Columns and labels:
[1] = system: osteoarthritis of the knee; test: Second Phase 2 study: Subject's pain Assessment Scores (SPA); assay type: in vivo, human; conditions: Week 12; for Subject’s pain Assessment Scores, Different from oral ibuprofen (LS Mean) / Subject’s pain Assessment Scores, Different from placebo (LS Mean) / Subject’s pain Assessment Scores, Week 12 (LS Mean) / Subject’s pain Assessment Scores, % of improvement from Oral Ibuprofen / Subject’s pain Assessment Scores, % of improvement from baseline / Subject’s pain Assessment Scores, % of improvement from placebo / Subject’s pain Assessment Scores, Changes from Baseline (LS Mean): first 130 subjects; for Subject's pain Assessment Scores, % of improvement from Oral Ibuprofen / Subject's pain Assessment Scores, % of improvement from Placebo / Subject's pain Assessment Scores, % of improvement from baseline / Subject's pain Assessment Scores, Changes from Baseline (LS Mean) / Subject's pain Assessment Scores, Week 12 (LS Mean) / Subject's pain Assessment Scores, Different from oral ibuprofen (LS Mean) / Subject's pain Assessment Scores, Different from placebo (LS Mean): all subjects
Experimental: Subjects will record the following information in a Daily Diary starting at Screening: the amount of knee pain in the target knee while walking during the preceding 24 hours (using a 100 mm visual analog scale [VAS]), the times and number of sprays for each administration of study medication, the times when the subject washes his/her knees and/or takes a shower, the number of tablets of rescue medication taken that day and the times taken, the reason for taking the rescue medication (e.g., knee pain, headache, low back pain), any other concomitant medications taken that day, and any AEs occurring that day.

[2] = system: osteoarthritis of the knee; test: Second Phase 2 study: Subject's Global Assessment of Disease Status (SGADS); assay type: in vivo, human
Excerpt: 4.9.2. Secondary Efficacy Endpoints: • 1. Change from Baseline in the WOMAC (VAS) pain subscale score for the target knee at 2, 8, and 12 weeks of treatment; • 2. Change from Baseline in the WOMAC (VAS) stiffness subscale scores for the target knee and WOMAC (VAS) functional ability subscale scores at 2, 4, 8, and 12 weeks of treatment; • 3. Change from Baseline in the overall WOMAC (VAS) score at 2, 4, 8, and 12 weeks of treatment; • 4. Subject's global assessment of disease status of the target knee at 2, 4, 8, and 12 weeks of treatment; • 5. Subject's global assessment of response to therapy of the target knee at 2, 4, 8, and 12 weeks of treatment; • 6. Amount of rescue medication (acetaminophen) consumed per day for target knee pain.

[3] = 17.5 mg/knee BID, Week 12, first 130 subjects
[4] = Week 12, 4.375 mg/knee BID (n = 23), first 130 subjects
[5] = Week 12, 8.75 mg/knee BID (n = 24), first 130 subjects
[6] = Week 12, 17.5 mg/knee BID (n = 19), first 130 subjects
[7] = all subjects, 4.375 mg/knee BID, n = 49, Week 12
[8] = all subjects, 8.75 mg/knee BID, n = 54, Week 12
[9] = all subjects, 17.5 mg/knee BID, n = 52, Week 12

## CCN(CC)CCOC(=O)C(C)c1ccc(CC(C)C)cc1 (centres unmarked) [2-(diethylamino)ethyl 2-(4-isobutylphenyl)propionate]
[1]; 4.375 mg/knee BID (n = 23)
  Subject’s pain Assessment Scores, Different from oral ibuprofen (LS Mean): 2.8 mm
  Subject’s pain Assessment Scores, Different from placebo (LS Mean): −4.0 mm
  Subject’s pain Assessment Scores, Week 12 (LS Mean): 36.7 mm
[1]; 8.75 mg/knee BID (n = 24)
  Subject’s pain Assessment Scores, % of improvement from Oral Ibuprofen: −10.4%
  Subject’s pain Assessment Scores, % of improvement from baseline: −47.7%
  Subject’s pain Assessment Scores, % of improvement from placebo: −18.5%
  Subject’s pain Assessment Scores, Changes from Baseline (LS Mean): −30.3 mm
  Subject’s pain Assessment Scores, Different from oral ibuprofen (LS Mean): −3.8 mm
  Subject’s pain Assessment Scores, Different from placebo (LS Mean): −11.4 mm
  Subject’s pain Assessment Scores, Week 12 (LS Mean): 33.2 mm
[1]; 17.5 mg/knee BID (n = 19)
  Subject’s pain Assessment Scores, % of improvement from Oral Ibuprofen: −22.0%
  Subject’s pain Assessment Scores, % of improvement from baseline: −58.2%
  Subject’s pain Assessment Scores, % of improvement from placebo: −29.0%
  Subject’s pain Assessment Scores, Changes from Baseline (LS Mean): −39.9 mm
  Subject’s pain Assessment Scores, Different from oral ibuprofen (LS Mean): −14.1 mm
  Subject’s pain Assessment Scores, Different from placebo (LS Mean): −21.0 mm
  Subject’s pain Assessment Scores, Week 12 (LS Mean): 28.7 mm
[1]; 4.375 mg/knee BID, n = 49
  Subject's pain Assessment Scores, % of improvement from Oral Ibuprofen: 4.9%
  Subject's pain Assessment Scores, % of improvement from Placebo: −3.5%
  Subject's pain Assessment Scores, % of improvement from baseline: −40.5%
  Subject's pain Assessment Scores, Changes from Baseline (LS Mean): −25.6 mm
  Subject's pain Assessment Scores, Week 12 (LS Mean): 37.5 mm
[1]; 8.75 mg/knee BID, n = 54
  Subject's pain Assessment Scores, % of improvement from Oral Ibuprofen: −3.0%
  Subject's pain Assessment Scores, % of improvement from Placebo: −11.4%
  Subject's pain Assessment Scores, % of improvement from baseline: −48.4%
  Subject's pain Assessment Scores, Changes from Baseline (LS Mean): −31.4 mm
  Subject's pain Assessment Scores, Different from oral ibuprofen (LS Mean): −0.8 mm
  Subject's pain Assessment Scores, Different from placebo (LS Mean): −7.2 mm
  Subject's pain Assessment Scores, Week 12 (LS Mean): 33.5 mm
[1]; 17.5 mg/knee BID, n = 52
  Subject's pain Assessment Scores, % of improvement from Oral Ibuprofen: −8.2%
  Subject's pain Assessment Scores, % of improvement from Placebo: −16.6%
  Subject's pain Assessment Scores, % of improvement from baseline: −53.6%
  Subject's pain Assessment Scores, Changes from Baseline (LS Mean): −34.6 mm
  Subject's pain Assessment Scores, Different from oral ibuprofen (LS Mean): −4.1 mm
  Subject's pain Assessment Scores, Different from placebo (LS Mean): −10.5 mm
  Subject's pain Assessment Scores, Week 12 (LS Mean): 30.0 mm
[2]; [3]
  SGADS, difference from oral ibuprofen: −14.2 mm
  SGADS, difference from placebo: −18.6 mm
[2]; 4.375 mg/knee BID (n = 23), first 130 subjects
  Subject’s Global Assessment of Disease Status Scores, Baseline (LS Mean): 64.8 mm
[2]; 8.75 mg/knee BID (n = 24), first 130 subjects
  Subject’s Global Assessment of Disease Status Scores, Baseline (LS Mean): 67.2 mm
[2]; 17.5 mg/knee BID (n = 19), first 130 subjects
  Subject’s Global Assessment of Disease Status Scores, Baseline (LS Mean): 69.3 mm
[2]; [4]
  Subject’s Global Assessment of Disease Status Scores, % of improvement from Oral Ibuprofen: −12.2%
  Subject’s Global Assessment of Disease Status Scores, % of improvement from baseline: −50.6%
  Subject’s Global Assessment of Disease Status Scores, % of improvement from placebo: −14.2%
  Subject’s Global Assessment of Disease Status Scores, Changes from Baseline (LS Mean): −32.8 mm
  Subject’s Global Assessment of Disease Status Scores, Different from oral ibuprofen (LS Mean): −3.9 mm
  Subject’s Global Assessment of Disease Status Scores, Different from placebo (LS Mean): −8.3 mm
  Subject’s Global Assessment of Disease Status Scores, Week 12 (LS Mean): 32.0 mm
[2]; [5]
  Subject’s Global Assessment of Disease Status Scores, % of improvement from Oral Ibuprofen: −11.8%
  Subject’s Global Assessment of Disease Status Scores, % of improvement from baseline: −50.7%
  Subject’s Global Assessment of Disease Status Scores, % of improvement from placebo: −14.3%
  Subject’s Global Assessment of Disease Status Scores, Changes from Baseline (LS Mean): −34.1 mm
  Subject’s Global Assessment of Disease Status Scores, Different from oral ibuprofen (LS Mean): −5.2 mm
  Subject’s Global Assessment of Disease Status Scores, Different from placebo (LS Mean): −9.6 mm
  Subject’s Global Assessment of Disease Status Scores, Week 12 (LS Mean): 33.1 mm
[2]; [6]
  Subject’s Global Assessment of Disease Status Scores, % of improvement from Oral Ibuprofen: −23.8%
  Subject’s Global Assessment of Disease Status Scores, % of improvement from baseline: −62.2%
  Subject’s Global Assessment of Disease Status Scores, % of improvement from placebo: −25.8%
  Subject’s Global Assessment of Disease Status Scores, Changes from Baseline (LS Mean): −43.1 mm
  Subject’s Global Assessment of Disease Status Scores, Different from oral ibuprofen (LS Mean): −14.2 mm
  Subject’s Global Assessment of Disease Status Scores, Different from placebo (LS Mean): −18.6 mm
  Subject’s Global Assessment of Disease Status Scores, Week 12 (LS Mean): 26.2 mm
[2]; [7]
  Subject's Global Assessment of Disease Status Scores, % of improvement from Oral Ibuprofen: −5.3%
  Subject's Global Assessment of Disease Status Scores, % of improvement from Placebo: −6.0%
  Subject's Global Assessment of Disease Status Scores, % of improvement from baseline: −51.9%
  Subject's Global Assessment of Disease Status Scores, Changes from Baseline (LS Mean): −34.7 mm
  Subject's Global Assessment of Disease Status Scores, Week 12 (LS Mean): 32.1 mm
[2]; [8]
  Subject's Global Assessment of Disease Status Scores, % of improvement from Oral Ibuprofen: −6.4%
  Subject's Global Assessment of Disease Status Scores, % of improvement from Placebo: −7.1%
  Subject's Global Assessment of Disease Status Scores, % of improvement from baseline: −53.0%
  Subject's Global Assessment of Disease Status Scores, Changes from Baseline (LS Mean): −36.6 mm
  Subject's Global Assessment of Disease Status Scores, Different from oral ibuprofen (LS Mean): −3.4 mm
  Subject's Global Assessment of Disease Status Scores, Different from placebo (LS Mean): −6.2 mm
  Subject's Global Assessment of Disease Status Scores, Week 12 (LS Mean): 32.4 mm
[2]; [9]
  Subject's Global Assessment of Disease Status Scores, % of improvement from Oral Ibuprofen: −10.6%
  Subject's Global Assessment of Disease Status Scores, % of improvement from Placebo: −11.3%
  Subject's Global Assessment of Disease Status Scores, % of improvement from baseline: −57.2%
  Subject's Global Assessment of Disease Status Scores, Changes from Baseline (LS Mean): −38.3 mm
  Subject's Global Assessment of Disease Status Scores, Different from placebo (LS Mean): −7.9 mm
  Subject's Global Assessment of Disease Status Scores, Week 12 (LS Mean): 28.7 mm
